This is an account of results in paper PMC4195943, “A novel small-molecule MRCK inhibitor blocks cancer cell invasion” (Cell Communication and Signaling : CCS, 2014).

For one data set, the system named is MDA MB 231 cells. Nature of the data set: Alamar Blue cell viability, MDA-MB-231 cells. Type of data set: cell-based, human. Conditions: 24 hours. As for the experimental part: (§1) (A) MDA-MB-231 human breast cancer cells were plated in 96 well plates, then 24 hours later a ~800 μm scratch wound was created. […] All results are shown as mean ± standard error of n ≥ 4 independent replicates. […] Readings were compared to the Alamar Blue metabolism in DMSO treated cells that were used as the viability standard of 100% for each replicate experiment. All results are shown as mean ± standard error of 3 independent replicates.
(§2) MDA-MB-231 cells were plated at 30,000 cells per well in Image Lock 96 well plates (Essen BioScience) in 100 μL complete DMEM medium and after allowing cells to settle for 20 min were incubated overnight at 37°C in 5% CO2 in a humidified incubator. Matrigel (BD Biosciences) was thawed overnight at 4°C, diluted 1:1 with PBS and 100 μL pipetted over cells that had been scratched with the WoundMaker tool (Essen BioScience). Plates were incubated for 1 h, then appropriately diluted drugs added in 100 μL media to achieve final concentrations. Plates were scanned with an Incucyte Zoom (Essen BioSciences) according to manufacturer’s instructions at 3 hour intervals. Cell viability was determined with AlamarBlue (Invitrogen, DAL 1025), which was added to the medium and cells cultured for 6 hours. Absorbances at 570 nm and at 600 nm were measured to assess metabolic activity.
(§3) MDA MB 231 or SCC12 cells were plated in a 96 well plate and cultured for 24 hours. […] Pictures were taken every 3 hours and confluence was measured using the IncuCyte analysis software. AlamarBlue (Invitrogen, DAL 1025) was added to the medium and the cells were cultured for an additional day. Absorbances at 570 nm and at 600 nm were measured to assess cell health.

In data set [1] the test system is SCC12 cells. Briefly: Organotypic collagen invasion of SCC12 cells. Type of data set: cell-based, human. Conditions: 2 μM, ten days. The method, then: (§4) All results are shown as mean ± standard error of n = 3 independent replicates. […] Readings were compared to the Alamar Blue metabolism in DMSO treated cells that were used as the viability standard of 100% for each replicate experiment. […] (F) Number of invading cells was determined in 5 random fields for each condition for each separate replicate experiment. All results are shown as mean ± standard error of n ≥ 3 independent replicates.
SCC12 invasion assays were performed essentially as described in [12]. HN-CAF cells were grown for 5 days in a Matrigel-collagen gel, covered with DMEM + 10%FBS medium, and allowed to remodel the matrix. The gel consisted of: 280 μL of DMEM + 10% FBS, 100 μL FBS, 20 μL 1 M Hepes pH 7.5 and approximately 200 μL of Matrigel (BD Biosciences, 354234), 400 μL of collagen type 1 (BD Biosciences, 354249) and 5×10^5 HN-CAF cells. Puromycin was subsequently added to the medium at 10 μg/ml for 3 days to remove HN-CAF cells. The gels were washed in SCC medium 3 times for 2 hours and SCC12 cells were plated on the surface of the gel and left to adhere overnight. […] The gels were fixed overnight in 4% PFA and 1% glutaraldehyde in PBS, washed in PBS and processed for histology.

For the next data set, the target named is T1, PhKγ2 (Homo sapiens, UniProt P15735).
T1 construct: purchased Eurofins
T1 sequence (P15735 1-406): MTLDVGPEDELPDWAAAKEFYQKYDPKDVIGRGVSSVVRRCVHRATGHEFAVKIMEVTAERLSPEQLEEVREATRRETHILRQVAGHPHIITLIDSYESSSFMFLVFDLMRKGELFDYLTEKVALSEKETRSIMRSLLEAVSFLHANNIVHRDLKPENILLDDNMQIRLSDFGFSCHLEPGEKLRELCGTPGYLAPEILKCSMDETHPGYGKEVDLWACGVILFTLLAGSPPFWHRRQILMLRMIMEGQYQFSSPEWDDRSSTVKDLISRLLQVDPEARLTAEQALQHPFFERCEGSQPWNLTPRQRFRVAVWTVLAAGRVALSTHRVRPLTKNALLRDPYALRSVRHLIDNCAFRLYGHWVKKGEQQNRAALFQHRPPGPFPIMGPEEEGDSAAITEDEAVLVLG
Nature of the data set: Kinase selectivity profiling (Eurofins), PhKγ2. Type of data set: biochemical. The source says:
(§5) The results of this screening were mapped over the annotated human kinome phylogenetic tree using Kinome Render (Figure 2).
(§6) Kinases inhibited less than 25% have their names in green text. Kinases inhibited >25% and ≤50% have yellow circles, >50% and ≤75% have orange circles, and >75% have red circles. In each case, the size of the circle is proportional to the percentage inhibition. ROCK1 and MRCKα positions are indicated on the tree for orientation purposes. Illustration reproduced courtesy of Cell Signaling Technology, Inc. (www.cellsignal.com).
(§7) MRCKα, MRCKβ, ROCK1 and ROCK2 assays were performed using an IMAP fluorescence polarization assay format (Molecular Devices Inc.). 8–12 nM of each kinase (Life Technologies) was incubated for 60 min at room temperature with 100 nM FAM-S6-ribosomal protein derived peptide (synthesized by Alta Biosciences, University of Birmingham UK) in the presence of 1 μM ATP and 0.5 mM MgCl2 in 20 mM Tris buffer (pH 7.4) containing 0.01% Tween-20 and 1 mM DTT (MRCKα and β); or 1 μM ATP, 10 mM MgCl2 in 20 mM Tris buffer (pH 7.5) containing 0.25 mM EGTA 0.01% Triton X-100 and 1 mM DTT (ROCK1 and ROCK2). […] After 30 min incubation to allow binding reagent to bind phosphorylated peptide, fluorescence polarization was measured on a Tecan Saphire^2 plate reader at excitation (470 nm) and emission (530 nm) wavelengths. […]

The subject of the next data set is MDA-MB-231 cells. Nature of the data set: Matrigel invasion (scratch wound closure, Incucyte) of MDA-MB-231 cells. The class given is cell-based, human. The method, then: as §1, §2
In another data set the target is T2, PRK2 (Homo sapiens, UniProt Q16513).
T2 construct: purchased Eurofins
T2 sequence (Q16513 whole entry): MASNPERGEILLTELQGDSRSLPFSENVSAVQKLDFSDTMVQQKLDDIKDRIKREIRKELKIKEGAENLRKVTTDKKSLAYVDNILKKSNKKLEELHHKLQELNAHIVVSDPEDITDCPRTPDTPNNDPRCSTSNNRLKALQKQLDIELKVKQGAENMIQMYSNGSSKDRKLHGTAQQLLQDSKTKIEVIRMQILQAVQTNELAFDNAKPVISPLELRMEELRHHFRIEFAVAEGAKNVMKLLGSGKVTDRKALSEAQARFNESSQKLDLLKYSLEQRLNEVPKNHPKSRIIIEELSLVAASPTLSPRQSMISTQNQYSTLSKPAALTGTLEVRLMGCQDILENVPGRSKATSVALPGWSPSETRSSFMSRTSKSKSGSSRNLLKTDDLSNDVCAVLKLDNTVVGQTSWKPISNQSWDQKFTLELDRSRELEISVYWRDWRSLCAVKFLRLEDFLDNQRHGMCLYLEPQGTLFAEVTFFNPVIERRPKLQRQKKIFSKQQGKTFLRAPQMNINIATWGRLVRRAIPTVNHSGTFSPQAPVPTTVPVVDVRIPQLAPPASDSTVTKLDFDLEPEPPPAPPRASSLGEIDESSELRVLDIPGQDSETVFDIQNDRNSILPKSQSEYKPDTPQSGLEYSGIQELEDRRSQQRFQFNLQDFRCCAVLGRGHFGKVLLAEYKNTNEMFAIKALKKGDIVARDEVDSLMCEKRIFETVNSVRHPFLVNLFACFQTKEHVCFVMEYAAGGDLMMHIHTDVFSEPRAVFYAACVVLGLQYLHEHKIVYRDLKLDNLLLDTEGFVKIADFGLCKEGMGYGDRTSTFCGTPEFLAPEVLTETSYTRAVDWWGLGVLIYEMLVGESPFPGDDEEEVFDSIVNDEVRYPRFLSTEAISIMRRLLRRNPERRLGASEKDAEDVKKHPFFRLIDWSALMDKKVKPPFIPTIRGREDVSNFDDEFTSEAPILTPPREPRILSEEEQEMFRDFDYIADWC
Nature of the data set: Kinase selectivity profiling (Eurofins), PRK2. Type of data set: biochemical.
From the text: as §5, §6, §7

The test system of data set [2] is SCC12 cells. Briefly: Alamar Blue cell viability, SCC12 cells. The class given is cell-based, human. The following applies: 2 μM, 24 hours. The method, then: as §4, §3
(The colour change of resazurin is a common sign of viable cells or microbes.)

Consider `O=C(Nc1cn[nH]c1-c1ccccn1)c1nn(C2CCNCC2)cc1Cl` [BDP5290, 4-chloro-1-(4-piperidyl)-N-[5-(2-pyridyl)-1H-pyrazol-4-yl]pyrazole-3-carboxamide], for which, in the data set on MDA MB 231 cells (1 μM), the “effect on cell viability” value was “no effect on cell viability”. In addition, the EC50 – broadly, the concentration giving half of the maximal effect – in the data set on MDA MB 231 cells (Homo sapiens, MDA-MB-231, read-out: EC50, cell viability (Alamar Blue metabolism)) is greater than 10 µM; in the data set on MDA-MB-231 cells (Homo sapiens, MDA-MB-231, 24 h, read-out: EC50, inhibition of Matrigel invasion (wound closure)), 0.44 µM. Moreover, the “SCC12 invasion into three dimensional collagen matrix” value with SCC12 cells [1] was “profound effect”. Also, the inhibition at 10 µM at PhKγ2 and on PRK2 was greater than 75% throughout. Moreover, the “inhibition of MDA-MB-231 invasion” value in the data set on MDA-MB-231 cells (10 μM) was “virtually complete inhibition”. Besides, in the data set on MDA-MB-231 cells (Homo sapiens, MDA-MB-231, 1 μM), the inhibition (in general, the relative decrease from the control value, in per cent) at 1 µM was greater than 60%. Further, the “cell viability (Alamar Blue metabolism) versus DMSO” value in the data set with SCC12 cells [2] was “did not differ from DMSO standard values”.
As for `C[C@@H](N)[C@H]1CC[C@H](C(=O)Nc2ccncc2)CC1` [Y27632, reference compound], the “effect on cell viability” value with MDA MB 231 cells (10 μM) was “no effect on cell viability”. In addition, the “SCC12 invasion into three dimensional collagen matrix” value in the data set with SCC12 cells [1] is reported as “did not significantly affect”. For the same compound, in the data set with MDA-MB-231 cells (10 μM), the “inhibition of wound closure” value is given as ~ 40%. In addition, in the data set on MDA-MB-231 cells (30 μM, 24 h), the inhibition of invasion was no more than 50%. In addition, in the data set with SCC12 cells [2], the “cell viability (Alamar Blue metabolism) versus DMSO” value is given as “did not differ from DMSO standard values”.
